One assay has as its target T1, 5-LOX (Homo sapiens, UniProt P09917).
T1 sequence (P09917 1-674): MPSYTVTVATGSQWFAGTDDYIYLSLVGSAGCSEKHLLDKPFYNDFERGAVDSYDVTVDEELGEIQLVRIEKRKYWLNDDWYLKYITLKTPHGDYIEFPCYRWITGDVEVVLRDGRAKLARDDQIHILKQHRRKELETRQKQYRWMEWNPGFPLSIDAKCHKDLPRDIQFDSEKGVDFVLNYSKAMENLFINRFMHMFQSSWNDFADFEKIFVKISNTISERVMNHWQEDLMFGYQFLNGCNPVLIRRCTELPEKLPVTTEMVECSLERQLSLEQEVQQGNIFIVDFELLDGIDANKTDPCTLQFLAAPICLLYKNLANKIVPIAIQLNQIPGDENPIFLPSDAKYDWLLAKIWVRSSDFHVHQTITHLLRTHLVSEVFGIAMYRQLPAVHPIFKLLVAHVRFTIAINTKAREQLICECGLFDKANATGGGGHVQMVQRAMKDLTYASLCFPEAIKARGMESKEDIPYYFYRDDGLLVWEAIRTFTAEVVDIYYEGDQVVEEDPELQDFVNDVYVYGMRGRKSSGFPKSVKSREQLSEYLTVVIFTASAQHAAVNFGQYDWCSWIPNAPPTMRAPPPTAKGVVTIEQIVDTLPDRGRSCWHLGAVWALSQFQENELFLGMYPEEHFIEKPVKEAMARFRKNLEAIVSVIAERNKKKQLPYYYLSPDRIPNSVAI
Kind of assay: Inhibition assay with recombinant 5-LOX. It is filed as biochemical. On the set-up: made in house; host or cells: Escherichia coli BL21. The conditions noted are these: 20 µM AA, 2 mM CaCl2. The method, then: Escherichia coli BL21 cells were transformed with the pT3-5-LO vector and human recombinant 5-LOX was expressed overnight at 30 °C as previously described. […] The supernatant was loaded on an ATP-agarose column and washed with 50 mM phosphate buffer (PB) containing 1 mM EDTA. Protein fractions were eluted with PB supplemented with 1 mM EDTA and 20 mM ATP. Aliquots of semi-purified 5-LOX were diluted with PBS containing 1 mM EDTA and used immediately in incubations.
Aliquots of 5-LOX (0.5 μg) were pre-incubated with test compounds or a vehicle (0.1%, v/v) for 10 min at 4 °C. […] The reaction was stopped after 10 min by addition of 1 vol of ice-cold methanol. Formed metabolites, i.e., LTB4, trans- and epi-trans-LTB4, and 5S-HETE, were analyzed with reverse-phase HPLC using a C18 RP Radial PAK column (Waters) as described previously.

For assay [1], the target named is T2, LTA4H (Homo sapiens, UniProt P09960).
T2 sequence (P09960 1-611): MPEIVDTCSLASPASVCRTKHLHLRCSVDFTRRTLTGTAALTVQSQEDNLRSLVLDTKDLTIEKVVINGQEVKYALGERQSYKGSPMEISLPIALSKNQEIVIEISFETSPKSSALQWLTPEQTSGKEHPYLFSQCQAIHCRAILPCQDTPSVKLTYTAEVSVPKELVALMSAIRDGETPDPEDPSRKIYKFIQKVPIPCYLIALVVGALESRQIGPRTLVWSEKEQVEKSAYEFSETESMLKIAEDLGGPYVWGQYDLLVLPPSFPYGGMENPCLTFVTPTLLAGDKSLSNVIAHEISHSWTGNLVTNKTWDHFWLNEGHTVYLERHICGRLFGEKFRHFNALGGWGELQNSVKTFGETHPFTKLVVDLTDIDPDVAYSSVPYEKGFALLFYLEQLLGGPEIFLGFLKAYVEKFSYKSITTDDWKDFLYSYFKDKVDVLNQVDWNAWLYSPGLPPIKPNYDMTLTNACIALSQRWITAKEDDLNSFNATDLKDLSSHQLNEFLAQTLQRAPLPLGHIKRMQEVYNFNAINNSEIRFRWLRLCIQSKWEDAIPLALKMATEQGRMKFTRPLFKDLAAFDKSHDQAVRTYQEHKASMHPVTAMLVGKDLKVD
Kind of assay: Aminopeptidase assay of LTA4H with the PGP substrate. The assay is classed as biochemical. On the set-up: made in house; host or cells: Escherichia coli JM101. As to conditions: 800 μM PGP, 0–100 μM inhibitor. The procedure: The reaction was stopped by addition of 150 μL of acetic acid. To detect and quantify released N-terminal proline, incubations with 150 μL of ninhydrin solution (25 mg/mL) were carried out at 100 °C for 45 min. Samples were cooled down and purple-colored ninhydrin conjugates were extracted with 350 μL toluene and the upper phase was transferred to a polypropylene 96-well plate (Greiner Bio-One, Kremsmünster, Austria). All incubations were carried out in triplicates and absorbance was measured at 495 nm using a TECAN Infinite M200 plate reader. Specific peptidase activities were determined based on the standard curve of free L-proline (Figure S10).

Assay [2] addresses T2, LTA4H. On the set-up: made in house; host or cells: Escherichia coli JM101; method as in PMID 24591641. As to conditions: previously demonstrated; cited from earlier work.
The mark [3] stands for this setting: read-out: IC50 with recombinant human 5-LOX.

Values joined by “and” are separate entries in the source; they are usually repeats but may differ in a detail not shown here. Identical values can stand only once. Like-named read-outs stand apart in the source and are kept apart here.

In the case of `Nc1nc(-c2ccc(Cc3ccccc3)cc2)co1` [TTO, 4-(4-benzylphenyl) oxazol-2-amine], at 5-LOX (setting [3]), the concentration for half-maximal inhibition (IC50) is 33.6 µM and > 30 µM. For the same compound, the “effect on the cleavage of the PGP tripeptide by recombinant LTA4H” value on LTA4H [1] is given as “did not influence”.

Consider `Nc1nc(-c2ccc(Cc3ccccc3)cc2)cs1` [ARM1, 4-(4-benzylphenyl) thiazol-2-amine, reference compound], for which the IC50 at 5-LOX (setting [3]) is 6.7 µM and ~6 µM. On LTA4H [2], the “effect on PGP cleavage by LTA4H” value is “remains unaffected”.

With `Nc1nc(-c2ccc(Cc3ccccc3)cc2)c[se]1` [TTSe, 4-(4-benzylphenyl) selenazol-2-amine], on 5-LOX (IC50 with recombinant human 5-LOX), the IC50 was 19.9 µM and ~20 µM. The “effect on the cleavage of the PGP tripeptide by recombinant LTA4H” value on LTA4H [1] is reported as “did not influence”.

As a reminder, the IC50 is the concentration needed to halve the response being measured.
